This is an account of results in article PMC9481570, “A small molecule antagonist of SMN disrupts the interaction between SMN and RNAP II” (Nature Communications, 2022).

One data set addresses T1, FXR1 (Homo sapiens, UniProt P51114).
T1 construct: FXR1 (aa 2–132); His (N, cleaved yes); made in house; host or cells: E. coli BL21 (DE3) Codon plus RIL
The data set can be described thus: ITC binding to FXR1. An excerpt:
(§1) The coding DNA fragments of following Tudor domains were cloned into pET28-MHL vector: SMN (aa 82–147), UHRF1 (aa 126–285), SMNDC1 (aa 53–130), TDRD3 (aa 554–611), SND1 (aa 650–910), TDRD2 (aa 327–420), FXR1 (aa 2–132), PHF1 (aa 28–87), SGF29 (aa 115–293), JMJD2A (aa 897–1101), 53BP1 (aa 1483–1606), SETDB1 (aa 190–410), LBR (aa 1–67), ZGPAT (aa 120–271). The coding regions of chromodomain of CBX7 (aa 8–62), PWWP domain of DNMT3A (aa 275–417), WD40 repeats of WDR5 (aa 24–334) and CW domain of ZCWPW2 (aa 21–78) were also subcloned into pET28-MHL vector to generate N-terminally His-tagged fusion protein. The MBT repeats of L3MBTL1 (aa 200–522) and L3MBTL2 (aa 170–625) were subcloned into pET28GST-LIC vector to generate N-terminally GST-His-tagged fusion protein. All the plasmids were generated by ligase independent cloning (Vazyme Biotech, C112 or ABclonal Technology, RK21020). […] The molecular weight of all protein samples was measured by mass spectrometry.
(§2) For the ITC measurement, the concentrated proteins were diluted into 20 mM Tris-HCl, pH 7.5, 150 mM NaCl (ITC buffer); the lyophilized compounds were dissolved in the same buffer, and the pH value was adjusted by adding 2 M NaOH or 2 M HCl. […] Compound concentrations were calculated from the mass and the volume of the solvent. […]

Another data set concerns the target T2, SMN_W102Y (Homo sapiens, UniProt Q16637, W102Y).
T2 construct: SMN (aa 82–147); His (N, cleaved yes); made in house; host or cells: E. coli BL21 (DE3) Codon plus RIL
The data set can be described thus: ITC binding to SMN Tudor mutant W102Y. The conditions noted are these: Fig. 3d.
Excerpt: as §1, §2

The target in another data set is T3, SND1 (Homo sapiens, UniProt Q7KZF4).
T3 construct: SND1 (aa 650–910); His (N, cleaved yes); made in house; host or cells: E. coli BL21 (DE3) Codon plus RIL
T3 sequence (Q7KZF4 650-910): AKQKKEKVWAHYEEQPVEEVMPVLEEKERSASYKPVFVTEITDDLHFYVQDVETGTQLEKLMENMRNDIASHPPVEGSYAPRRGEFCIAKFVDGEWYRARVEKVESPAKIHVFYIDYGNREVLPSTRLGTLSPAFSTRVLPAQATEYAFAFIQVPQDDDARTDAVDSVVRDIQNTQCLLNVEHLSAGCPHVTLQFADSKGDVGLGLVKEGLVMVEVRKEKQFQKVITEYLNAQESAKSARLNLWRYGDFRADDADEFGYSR
The experiment in a line: ITC binding to SND1. An excerpt: The coding DNA fragments of following Tudor domains were cloned into pET28-MHL vector: SMN (aa 82–147), UHRF1 (aa 126–285), SMNDC1 (aa 53–130), TDRD3 (aa 554–611), SND1 (aa 650–910), TDRD2 (aa 327–420), FXR1 (aa 2–132), PHF1 (aa 28–87), SGF29 (aa 115–293), JMJD2A (aa 897–1101), 53BP1 (aa 1483–1606), SETDB1 (aa 190–410), LBR (aa 1–67), ZGPAT (aa 120–271). The coding regions of chromodomain of CBX7 (aa 8–62), PWWP domain of DNMT3A (aa 275–417), WD40 repeats of WDR5 (aa 24–334) and CW domain of ZCWPW2 (aa 21–78) were also subcloned into pET28-MHL vector to generate N-terminally His-tagged fusion protein. The MBT repeats of L3MBTL1 (aa 200–522) and L3MBTL2 (aa 170–625) were subcloned into pET28GST-LIC vector to generate N-terminally GST-His-tagged fusion protein. All the plasmids were generated by ligase independent cloning (Vazyme Biotech, C112 or ABclonal Technology, RK21020). […] The proteins were further purified by Superdex75 or Superdex200 gel-filtration column (GE Healthcare) in a buffer containing 20 mM Tris-HCl, pH 7.5, 150 mM NaCl and 1 mM DTT. For crystallization experiments, purified proteins were concentrated to 18 mg/mL for SMN, 23 mg/mL for UHRF1 and 10 mg/mL for TDRD3 in the gel-filtration buffer. […] The molecular weight of all protein samples was measured by mass spectrometry.
For the ITC measurement, the concentrated proteins were diluted into 20 mM Tris-HCl, pH 7.5, 150 mM NaCl (ITC buffer); the lyophilized compounds were dissolved in the same buffer, and the pH value was adjusted by adding 2 M NaOH or 2 M HCl. […] Compound concentrations were calculated from the mass and the volume of the solvent. […] The protein with a concentration of 50–100 μM was placed in the cell chamber, and the compounds with a concentration of 0.5–2 mM in syringe was injected in 25, 20, or 20 successive injections with a spacing of 180, 150, or 120 s for VP-ITC, iTC-200, or Nano-ITC, respectively, as previously described[30]–[32]. iTC-200 or Nano-ITC data were consistent with those from the VP-ITC instrument, based on ITC results of SMN-compound 1 detected by using all the instruments. […]

The nature of data set [1]: Solubility of the hit compound. The class given is physicochemical. The method, then:
Screen Format 384-well black plates (Greiner, 784290)
Concentration(s) tested 2 mM compound with 2% DMSO (final concentration), 40 nM FITC-labeled H3K9me3 peptide, 8 μM tandem
Tudor domain of UHRF1 protein
Plate controls Background: FITC-labeled peptide only; negative control: FITC-labeled peptide and protein; positive control: FITC-labeled peptide and protein plus unlabeled H3K9me3 peptide
Reagent/ compound dispensing system Agilent Bravo robot
Detection instrument and software Synergy 4 microplate reader (BioTek), GraphPad […]
Assay validation/QC Z’ factor = 0.8
Correction factors Background value
Normalization All the digital values of fluorescence polarization signal subtract the background signal value.
Additional comments High concentrations (>2.5%) of DMSO might affect peptide binding and signal-to-noise ratios
Post-HTS analysis Hit criteria The signal of negative control was set as 100%. When the signal of sample was less than 50% of negative control, it was taken as hit.
Additional assay(s) The hits were further confirmed by dose response analysis with 1 mM as the highest concentration of the hits and 11 serial dilutions by 2 times, and then by isothermal titration calorimetry assay.
Confirmation of hit purity and structure The compound was repurchased (Specs, ID: AG- […]

The next data set addresses T4, JMJD2A (Homo sapiens, UniProt O75164).
T4 construct: JMJD2A (aa 897–1101); His (N, cleaved yes); made in house; host or cells: E. coli BL21 (DE3) Codon plus RIL
The experiment in a line: ITC binding to JMJD2A. Particulars: Fig. 1c.
Excerpt: as §1, §2

For another data set, the target named is T5, SMN_W102F (Homo sapiens, UniProt Q16637, W102F).
T5 construct: SMN (aa 82–147); His (N, cleaved yes); made in house; host or cells: E. coli BL21 (DE3) Codon plus RIL
T5 sequence (Q16637 82-147 W102F): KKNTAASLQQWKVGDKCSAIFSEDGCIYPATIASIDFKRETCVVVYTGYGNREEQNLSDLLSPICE
The experiment in a line: ITC binding to SMN Tudor mutant W102F. Particulars: Fig. 3d.
Excerpt: as §1, §2

Each structure is given as a SMILES string. Read-outs that look alike come from different tables or passages of the source.

T1 sequence (P51114 2-132): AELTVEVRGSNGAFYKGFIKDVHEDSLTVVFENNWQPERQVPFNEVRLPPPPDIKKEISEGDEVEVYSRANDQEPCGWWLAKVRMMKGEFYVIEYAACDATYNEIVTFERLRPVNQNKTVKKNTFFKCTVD
T2 sequence (Q16637 82-147 W102Y): as the sequence (Q16637 82-147 W102F) above, with F21Y counted along it
T4 sequence (O75164 897-1064): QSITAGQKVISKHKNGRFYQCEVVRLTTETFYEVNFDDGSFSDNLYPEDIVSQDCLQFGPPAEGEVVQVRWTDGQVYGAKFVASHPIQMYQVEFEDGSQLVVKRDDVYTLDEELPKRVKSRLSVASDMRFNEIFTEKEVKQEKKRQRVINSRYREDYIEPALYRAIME

As to `Cn1c2c(c(=N)c3c1CCC3)CCC2` [Compound 1, 4-methyl-2,3,4,5,6,7-hexahydrodicyclopenta[b,e]pyridin-8(1H)-imine], the Kd at FXR1 (ITC, Fig. 1c) is above 100 µM; at SMN_W102Y, 8.3 ± 1.1 µM; at SND1 (ITC, Fig. 1c, read-out: Kd (SND1)), above 100 µM; at SND1 (Supplementary Fig. 11c, VP-ITC, read-out: Kd, ITC binding curve, SND1) it was 244 ± 51 µM; on JMJD2A, above 244 µM; at SMN_W102F it was above 100 µM. Besides, the “ITC binding curve, FXR1 (in words)” value at FXR1 (Supplementary Fig. 2e) is “Weak binding”. Besides, the “ITC binding curve, SND1 (in words)” value on SND1 (Supplementary Fig. 2d) is reported as “Weak binding”. In addition, the “concentration dissolved in DMSO” value in data set [1] (DMSO) came out at 100000 µM. Also, the “solubility in buffer at high concentration” value in data set [1] (buffer) is “but not in buffer”.

Broadly, the Kd is the constant that tells how readily two partners part at equilibrium.
